The structures appear in SMILES notation.

For the test, the system named is P. Falciparum NF54. Put plainly: Plasmodium falciparum in vitro assay ([3H]-hypoxanthine incorporation). It is filed as cell-based. Particulars: Plasmodium falciparum, Erythrocyte, P. Falciparum NF54, erythrocytic stages in human red blood cells, 50% human serum. Here is the method: In Vitro Antimalarial Activity: Plasmodium falciparum In Vitro Assay: In vitro activity against erythrocytic stages of P. Falciparum in human red blood cells is determined using a [^3H]-hypoxanthine incorporation assay. One strain sensitive to all drugs (P. […] After 48 hours, [^3H]-hypoxanthine (0.5 μCi) is added to each well of a plate. The plates are incubated for a further 24 hours under the same conditions then harvested with a Betaplate cell harvester (Wallac) and washed with distilled water. The dried filters are inserted into a plastic foil with 10 mL of scintillation fluid and counted in a Betaplate liquid scintillation counter. IC50 values are calculated from sigmoidal inhibition curves using Microsoft Excel.
Take `CN(c1ccncc1)c1ccc(CN(C(=O)/C=C/c2ccc(C(F)(F)F)cc2)C2CCN(Cc3ccc(C(F)(F)F)cc3)CC2)cc1` [Example 3, (E)-N-[4-(Methyl-pyridin-4-yl-amino)-benzyl]-N-[1-(4-trifluoromethyl-benzyl)-piperidin-4-yl]-3-(4-trifluoromethyl-phenyl)-acrylamide]: the midpoint of inhibition, the IC50, lay at 72 nM.
For `Cc1nc(CN2CCC(N(Cc3ccc(N(C)c4ccncc4)cc3)C(=O)/C=C/c3ccc(C(F)(F)F)cc3)CC2)co1` [Example 4, (E)-N-[1-(2-Methyl-oxazol-4-ylmethyl)-piperidin-4-yl]-N-[4-(methyl-pyridin-4-yl-amino)-benzyl]-3-(4-trifluoromethyl-phenyl)-acrylamide], it took 133 nM to reach half-maximal inhibition (IC50).
As to `CN(c1ccncc1)c1ccc(CN(C(=O)/C=C/c2ccc(C(F)(F)F)cc2)C2CCN(C3CCCC3)CC2)cc1` [Example 5, (E)-N-(1-Cyclopentyl-piperidin-4-yl)-N-[4-(methyl-pyridin-4-yl-amino)-benzyl]-3-(4-trifluoromethyl-phenyl)-acrylamide], half-maximal inhibition (IC50) was put at 11 nM.
Next, `CN(c1ccncc1)c1ccc(CN(C(=O)/C=C/c2ccc(C(F)(F)F)cc2)C2CCN(Cc3ccccc3)CC2)cc1` [Example 6, (E)-N-(1-Benzyl-piperidin-4-yl)-N-[4-(methyl-pyridin-4-yl-amino)-benzyl]-3-(4-trifluoromethyl-phenyl)-acrylamide]: 58 nM; `CCN1CCC(N(Cc2ccc(N(C)c3ccncc3)cc2)C(=O)/C=C/c2ccc(C(F)(F)F)cc2)CC1` [Example 7, (E)-N-(1-Ethyl-piperidin-4-yl)-N-[4-(methyl-pyridin-4-yl-amino)-benzyl]-3-(4-trifluoromethyl-phenyl)-acrylamide]: 26 nM; `CC(C)CCN1CCC(N(Cc2ccc(N(C)c3ccncc3)cc2)C(=O)/C=C/c2ccc(C(F)(F)F)cc2)CC1` [Example 8, (E)-N-[1-(3-Methyl-butyl)-piperidin-4-yl]-N-[4-(methyl-pyridin-4-yl-amino)-benzyl]-3-(4-trifluoromethyl-phenyl)-acrylamide]: 43 nM.
In the case of `CN(c1ccncc1)c1ccc(CN(C(=O)/C=C/c2ccc(C(F)(F)F)cc2)C2CCN(CC3CC3)CC2)cc1` [Example 9, (E)-N-(1-Cyclopropylmethyl-piperidin-4-yl)-N-[4-(methyl-pyridin-4-yl-amino)-benzyl]-3-(4-trifluoromethyl-phenyl)-acrylamide], the IC50 (as a rule, the concentration that inhibits the measured activity by half) was 27 nM.
The figure for `CN(c1ccncc1)c1ccc(CN(C(=O)/C=C/c2ccc(C(F)(F)F)cc2)C2CCN(CC3CC4C=CC3C4)CC2)cc1` (centres unmarked) [Example 10, (E)-N-(1′-Bicyclo[2.2.1]hept-5-en-2-ylmethyl-piperidin-4-yl)-N-[4-(methyl-pyridin-4-yl-amino)-benzyl]-3-(4-trifluoromethyl-phenyl)-acrylamide] is 14 nM; for `CN(c1ccncc1)c1ccc(CN(C(=O)/C=C/c2ccc(C(F)(F)F)cc2)C2CCN(Cc3ccc(Cl)c(Cl)c3)CC2)cc1` [Example 11, (E)-N-[1-(3,4-Dichloro-benzyl)-piperidin-4-yl]-N-[4-(methyl-pyridin-4-yl-amino)-benzyl]-3-(4-trifluoromethyl-phenyl)-acrylamide] it is 84 nM.
Compound `Cc1ccc(CN2CCC(N(Cc3ccc(N(C)c4ccncc4)cc3)C(=O)/C=C/c3ccc(C(F)(F)F)cc3)CC2)cc1` [Example 12, (E)-N-[1-(4-Methyl-benzyl)-piperidin-4-yl]-N-[4-(methyl-pyridin-4-yl-amino)-benzyl]-3-(4-trifluoromethyl-phenyl)-acrylamide] had a half-inhibitory concentration (IC50) of 29 nM.
For the compound `COc1ccc(CN2CCC(N(Cc3ccc(N(C)c4ccncc4)cc3)C(=O)/C=C/c3ccc(C(F)(F)F)cc3)CC2)cc1` [Example 13, (E)-N-[1-(4-Methoxy-benzyl)-piperidin-4-yl]-N-[4-(methyl-pyridin-4-yl-amino)-benzyl]-3-(4-trifluoromethyl-phenyl)-acrylamide], the 50% inhibitory concentration (IC50) turned out to be 50 nM.
With `CN(c1ccncc1)c1ccc(CN(C(=O)/C=C/c2ccc(C(F)(F)F)cc2)C2CCN(CCc3ccccc3)CC2)cc1` [Example 14, (E)-N-[4-(Methyl-pyridin-4-yl-amino)-benzyl]-N-(1-phenethyl-piperidin-4-yl)-3-(4-trifluoromethyl-phenyl)-acrylamide], 55 nM corresponded to half-maximal inhibition (IC50).
For `CN(c1ccncc1)c1ccc(CN(C(=O)/C=C/c2ccc(C(F)(F)F)cc2)C2CCN(CC(c3ccccc3)c3ccccc3)CC2)cc1` [Example 15, (E)-N-[1-(2,2-Diphenyl-ethyl)-piperidin-4-yl]-N-[4-(methyl-pyridin-4-yl-amino)-benzyl]-3-(4-trifluoromethyl-phenyl)-acrylamide], the IC50 came to 41 nM.
With `CN(c1ccncc1)c1ccc(CN(C(=O)/C=C/c2ccc(C(F)(F)F)cc2)C2CCN(CCC(F)(F)F)CC2)cc1` [Example 16, (E)-N-[4-(Methyl-pyridin-4-yl-amino)-benzyl]-3-(4-trifluoromethyl-phenyl)-N-[1-(3,3,3-trifluoro-propyl)-piperidin-4-yl]-acrylamide], the midpoint of inhibition, the IC50, lay at 154 nM.
Turning to `CN(c1ccncc1)c1ccc(CN(C(=O)/C=C/c2ccc(C(F)(F)F)cc2)C2CCN(Cc3ccnn3C)CC2)cc1` [Example 17, (E)-N-[1-(2-Methyl-2H-pyrazol-3-ylmethyl)-piperidin-4-yl]-N-[4-(methyl-pyridin-4-yl-amino)-benzyl]-3-(4-trifluoromethyl-phenyl)-acrylamide], the IC50 is 180 nM.
`CN(c1ccncc1)c1ccc(CN(C(=O)/C=C/c2ccc(C(F)(F)F)cc2)C2CCN(Cc3cnn(-c4ccccc4)c3)CC2)cc1` [Example 18, (E)-N-[4-(Methyl-pyridin-4-yl-amino)-benzyl]-N-[1-(1-phenyl-1H-pyrazol-4-ylmethyl)-piperidin-4-yl]-3-(4-trifluoromethyl-phenyl)-acrylamide]: half-maximal inhibition (IC50) required 51 nM.
For the compound `CN(c1ccncc1)c1ccc(CN(C(=O)/C=C/c2ccc(C(F)(F)F)cc2)C2CCN(Cc3cncn3C)CC2)cc1` [Example 19, (E)-N-[1-(3-Methyl-3H-imidazol-4-ylmethyl)-piperidin-4-yl]-N-[4-(methyl-pyridin-4-yl-amino)-benzyl]-3-(4-trifluoromethyl-phenyl)-acrylamide], the midpoint of inhibition, the IC50, lay at 54 nM.
Compound `CN(c1ccncc1)c1ccc(CN(C(=O)/C=C/c2ccc(C(F)(F)F)cc2)C2CCN(Cc3ncc4ccccn34)CC2)cc1` [Example 20, (E)-N-(1-Imidazo[1,5-a]pyridin-3-ylmethyl-piperidin-4-yl)-N-[4-(methyl-pyridin-4-yl-amino)-benzyl]-3-(4-trifluoromethyl-phenyl)-acrylamide] had an IC50 of 256 nM.
`CN(c1ccncc1)c1ccc(CN(C(=O)/C=C/c2ccc(C(F)(F)F)cc2)C2CCN(Cc3nc4ccccc4n3C)CC2)cc1` [Example 21, (E)-N-[1-(1-Methyl-1H-benzoimidazol-2-ylmethyl)-piperidin-4-yl]-N-[4-(methyl-pyridin-4-yl-amino)-benzyl]-3-(4-trifluoromethyl-phenyl)-acrylamide] displayed an IC50 of 355 nM.
Take `CN(c1ccncc1)c1ccc(CN(C(=O)/C=C/c2ccc(C(F)(F)F)cc2)C2CCN(Cc3ccccn3)CC2)cc1` [Example 22, (E)-N-[4-(Methyl-pyridin-4-yl-amino)-benzyl]-N-(1-pyridin-2-ylmethyl-piperidin-4-yl)-3-(4-trifluoromethyl-phenyl)-acrylamide]: the IC50 stood at 176 nM.
